Laboratory results published in PubChem BioAssay AID624167 (Sanford-Burnham Center for Chemical Genomics, 2012).
Active and inactive are the calls of the source.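 The calls were made as follows: active = mean IC50 for reducing PEG3 promoter reporter signal at or below a set limit, with IC50 above the limit in both counter screens; inactive = the rest, including counter screen hits.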

Legend:
Assay in all cases: inhibition of PEG-3 promoter-driven reporter – cell-based, HeLa, luciferase, CREF/GAPDH counter-screen panel, dose response (AID 624167)
PEG-3 [1] = conditions: HeLa PEG-Prom luciferase reporter, overnight, CREF/GAPDH counter-screens
Rat fibroblasts (CREF) = conditions: CREF/GAPDH counter-screens
PEG-3 [2] = biological target: PEG-3 (UniProt Q6IN02); conditions: HeLa PEG-Prom luciferase reporter, overnight, CREF/GAPDH counter-screens, mean of runs
[3] = run 1, dose range 1, individual replicate IC50 per panel
[4] = run 2, dose range 1, individual replicate IC50 per panel

PEG-3 (UniProt Q6IN02), sequence (Q6IN02 whole entry, looked up): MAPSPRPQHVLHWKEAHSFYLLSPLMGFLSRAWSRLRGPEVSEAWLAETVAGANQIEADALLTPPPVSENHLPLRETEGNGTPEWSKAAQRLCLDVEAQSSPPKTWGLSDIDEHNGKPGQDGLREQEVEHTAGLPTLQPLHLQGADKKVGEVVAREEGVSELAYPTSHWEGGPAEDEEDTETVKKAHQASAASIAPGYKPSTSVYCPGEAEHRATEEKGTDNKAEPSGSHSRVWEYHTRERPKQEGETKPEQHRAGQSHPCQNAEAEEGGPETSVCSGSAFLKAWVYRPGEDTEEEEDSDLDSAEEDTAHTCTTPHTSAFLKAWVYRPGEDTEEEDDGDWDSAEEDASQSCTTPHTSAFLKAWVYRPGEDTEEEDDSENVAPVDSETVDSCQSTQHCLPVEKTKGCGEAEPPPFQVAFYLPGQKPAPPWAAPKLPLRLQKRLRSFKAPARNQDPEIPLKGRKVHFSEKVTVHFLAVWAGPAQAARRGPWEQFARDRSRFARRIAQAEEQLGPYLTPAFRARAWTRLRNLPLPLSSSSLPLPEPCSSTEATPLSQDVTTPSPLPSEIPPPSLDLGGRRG

SMILES	IC50 (PEG-3 [1]; [3]) [µM]	IC50 (PEG-3 [1]; [4]) [µM]	IC50 (Rat fibroblasts (CREF); mean of runs) [µM]	IC50 (Rat fibroblasts (CREF); [3]) [µM]	IC50 (Rat fibroblasts (CREF); [4]) [µM]	IC50 (PEG-3 [2])
Cc1cnc(NC(=O)c2ccc3c(c2)OCCO3)s1	0.647	> 100	0.454	0.378	0.53	inactive
O=C(/C=C/Nc1ccccc1Br)c1ccccn1	0.895	1.31	0.506	0.414	0.599	1.1 µM
Cc1csc(NC(=O)c2ccc(N3CCCC3=O)cc2)n1	5.34	6.53	4.51	2.85	6.17	5.93 µM
Cc1ccc2nc(C)cc(Nc3ccc([N+](=O)[O-])cc3)c2c1	10.6	5.38	8.48	8.42	8.54	8 µM
Cc1cccc(C)c1NC(=O)c1nc(S(=O)(=O)Cc2ccccc2)ncc1Cl	10.1	7.29	14.6	13	16.1	8.69 µM
Cc1cc(N2CCN(C)CC2)ccc1NC(=O)c1c2c(nc3ccccc13)CCN(Cc1ccccc1)C2	5.6	12.2	3.01	2.44	3.59	8.92 µM
CCOc1ccc(NC(=O)c2ccccn2)cc1	2.89	4.04	1.28	0.921	1.65	3.46 µM
c1ccc(-c2nc(-c3ccccn3)no2)cc1	6.25	> 100	2.98	3.18	2.79	inactive
CN(C)c1ccc(/C=C/c2nc3ccccc3s2)cc1	4.73	7.51	1.56	1.17	1.95	6.12 µM
COc1cccc(/C=N/NC(=O)c2ccc(-c3ccccc3)cc2)c1O	3.33	1.73	24.9	19.6	30.2	2.53 µM
O=C(CCl)Nc1ccccc1Sc1ccc(Cl)cc1	13	7.06	8.11	8.04	8.18	10.1 µM
COc1ccc(C(=O)CN2C(=O)c3ccccc3S2(=O)=O)cc1	2.96	3.59	3.15	3.25	3.04	3.28 µM
Cc1nc(-c2ccc(NC(=O)c3ccco3)cc2)cs1	1.39	1.69	0.433	0.43	0.436	1.54 µM
c1ccc(-c2noc(-c3ccc4c(c3)OCO4)n2)nc1	0.622	1.01	0.694	0.309	1.08	0.818 µM
COc1ccccc1CNCC(O)Cn1c2ccccc2c2ccccc21 (stereo unspecified)	10.1	7.69	16.2	16.7	15.7	8.9 µM
O=C(NCCc1ccccc1)c1ccc2c(c1)OCCCO2	0.466	0.647	0.589	0.374	0.803	0.557 µM
COc1cc(SC)ccc1C(=O)Nc1nc(C)cs1	1.69	2.52	0.516	0.542	0.49	2.11 µM
Brc1ccc(N/N=C(/N=Nc2nn[nH]n2)c2ccccc2)cc1	0.76	1.25	10.2	10	10.4	1 µM
COc1cccc(NC(=O)c2nc(S(C)(=O)=O)ncc2Cl)c1	8.84	6.64	9.29	10.2	8.36	7.74 µM
O=C(Nc1ncc([N+](=O)[O-])s1)c1ccc2c(c1)OCO2	2.01	2.41	10.8	8.9	12.8	2.21 µM
COc1ccc(S(=O)(=O)/N=C2\C=C(Nc3ccc(O)cc3)C(=O)c3ccccc32)cc1	2.5	2.65	1.63	1.38	1.88	2.58 µM
CCOC(=O)c1cnc(Nc2nc3ccccc3o2)nc1C	1.17	2.33	1.32	1.27	1.37	1.75 µM
CN(C)CCCN(C(=O)c1ccc(S(=O)(=O)N2CCc3ccccc3C2)cc1)c1nc2ccc(F)cc2s1	11.3	8.74	13.4	9.84	17	10 µM

SMILES	IC50 (PEG-3 [1]; [3]) [µM]	IC50 (PEG-3 [1]; [4]) [µM]	IC50 (Rat fibroblasts (CREF); mean of runs) [µM]	IC50 (Rat fibroblasts (CREF); [3]) [µM]	IC50 (Rat fibroblasts (CREF); [4]) [µM]	IC50 (PEG-3 [2])
CCN(CCCl)c1cc(CN(C)C)cc(NC(=O)c2ccc(C(=O)Nc3cc(CN(C)C)cc(N(CC)CCCl)c3)cc2)c1	1.6	0.642	7.53	14.3	0.8	1.12 µM
Cc1nc(SCC(=O)Nc2nc3ccccc3s2)c(C#N)c(C)c1C	8.05	< 0.2	7.9	0.232	15.6	4.13 µM
COc1ccccc1C(=O)Nc1nc2ccccc2s1	0.515	0.633	0.489	0.348	0.631	0.574 µM
Cc1ccc(-c2nc(-c3ccccn3)no2)cc1	0.479	0.663	0.48	0.288	0.672	0.571 µM
O=C(CNCCC1=CCCCC1)Nc1ccc(N2CCCCCC2)cc1	10.6	9.37	16.6	16.5	16.8	9.98 µM
Cc1cc(NC(c2cccnc2)c2ccc3cccnc3c2O)no1 (stereo unspecified)	7.22	5.04	5.72	5.65	5.79	6.13 µM
Cc1ccc2nc(-c3ccc4c(c3)OCCO4)cn2c1	0.84	0.409	0.731	0.691	0.771	0.624 µM
C[C@@H]1C[C@@H]([C@H](O)CC2CC(=O)NC(=O)C2)C(=O)[C@@H](C)C1	1.65	0.373	8.14	1.85	14.4	1.01 µM
COc1ccc(C(=O)/C=C/Nc2ccccn2)cc1	2.02	3.18	3.61	3.45	3.77	2.6 µM
Cc1ccc2oc(/N=C(\N)NC(=O)C(C)(C)C)nc2c1	0.725	> 100	2.99	0.412	5.57	inactive
O=[N+]([O-])c1ccc(-c2ccc(/C=N/Nc3nc(NCc4ccccc4)nc(N4CCOCC4)n3)o2)cc1	6.13	5.18	8.54	9.4	7.68	5.66 µM
Cc1cc(S(=O)(=O)c2ccc(Cl)cc2)nc(S(=O)(=O)c2ccc(Cl)cc2)c1C#N	6.14	4.14	13.1	10.9	15.3	5.14 µM
Cc1ccccc1OCC(O)CNC1CCC(NCC(O)COc2ccccc2C)CC1 (stereo unspecified)	9.8	4.49	10.8	8.94	12.6	7.15 µM
Cc1ccc(C(=O)O/N=C(\N)c2ccccn2)cc1	10.3	2.96	1.57	1.63	1.5	6.63 µM
C(=Cc1cnc2ccccc2n1)c1ccc2c(c1)OCO2	1.7	1.27	1.12	1.02	1.21	1.49 µM
Cc1c([N+](=O)[O-])cc(N2C(=O)C=CC2=O)cc1[N+](=O)[O-]	9.19	7.25	17.2	16.8	17.6	8.22 µM
CCC1(OC(=O)CN)C(=O)OCc2c1cc1n(c2=O)Cc2cc3ccccc3nc2-1 (stereo unspecified)	3.8	2.88	1.38	1.07	1.69	3.34 µM
CN[C@H]1C[C@H]2c3[nH]c4ccc(-c5ccc(OC)cc5)cc4c3CCN2C(=O)[C@H]1[C@H](C)O	12.5	8.39	16.1	16.9	15.3	10.5 µM
CCN(CCO)c1ccc(N=Nc2cc(C)[nH]n2)cc1	3	6.22	2.24	1.52	2.97	4.61 µM
Cc1ccc(C(=O)Nc2cnc3ccccc3c2)cc1	0.416	0.582	3.89	3.52	4.26	0.499 µM
Cc1ccc2nc(NC(=O)c3ccccn3)sc2c1	1.29	1.18	0.83	0.564	1.1	1.24 µM
O=C(c1ccc(Cl)cc1)N1CCCCC(Sc2nnc(-c3ccc4c(c3)OCO4)o2)C1=O (stereo unspecified)	0.669	3.91	2.25	3.87	0.643	2.29 µM
COC1=CC(=O)c2c(ccc3ncnc(N)c23)C1=O	1.48	0.547	0.935	0.875	0.995	1.01 µM
